Consider 21 compounds from US9221838B2, “Inhibitors of AKT activity” (ALMAC DISCOVERY LIMITED, priority 2009, dated 2015).

Common to all, as to type: biochemical
One test addresses T1, AKT2 (Homo sapiens, UniProt P31751).
T1 construct: purchased SignalChem
The test is described as follows: AKT Kinase Assay (IMAP fluorescent polarisation) vs AKT2. As to the method:
(§1) Testing of the compounds was performed using an AKT Kinase Assay:
(§2) Activated AKT isoforms 1, 2 and 3 were assayed utilising a 5′ FAM Crosstide (Seq. GRPRTSSFAEG-OH)(SEO ID NO: 1). The extent of kinase phosphorylation was determined by fluorescent polarisation using IMAP progressive binding reagent, which introduces binding beads which allow the reagent to specifically bind to phosphate residues via covalent co-ordination complex bonds.
(§3) iMAP binding solution stops Crosstide/kinase interaction and specifically binds phosphorylated substrates. The degree of phosphorylation is determined by fluorescent polarisation (excitation 485 nm; emission 528 nm) or the reduction in speed of rotation of the excited substrate.
(§4) The following materials were used in the assay: • a) Activated AKT isoforms (SignalChem.) dissolved in Complete Reaction buffer at a pre-determined concentration selected so that the assay was carried out in the linear range. • b) AKT substrate peptide: FAM Crosstide (R7110) Molecular Devices, diluted in complete reaction buffer. • c) iMAP Progressive Screening Express Kit (R8127) Molecular Devices • d) Complete Reaction Buffer containing 0.1% BSA, 10 mM Tris-HCl, 10 mM MgCl2, 0.05% NaN3 and 0.01% phosphate free BSA, 1 mM DTT • e) Progressive Binding Solution containing 75% Buffer A, 25% Buffer B and low volume Binding Reagent which contains the binding entity for the assay • f) ATP diluted in complete reaction buffer • g) Black polystyrene 384 well assay plates (Nunc). • h) Biotek Synergy 4 Hybrid Plate reader.
(§5) 5 μl of test compound was dissolved in DMSO (Sigma Aldrich) and serially diluted in complete reaction buffer to give a fourteen point half log dose response and plated into 384 well black plates. The compound was incubated at room temperature with activated AKT isoform ([…] ) at the pre-determined concentration, for 45 minutes.
(§6) 2.5 μl of ATP solution mixed with 2.5 μl of AKT substrate peptide (FAM Crosstide (R7110) Molecular Devices) were dispensed into each well and the plate centrifuged at 1000 rpm for 20 seconds to ensure homogenous mixing of reagents. The reaction mix was incubated in the dark for one hour at room temperature.
(§7) The kinase reaction was stopped by the addition of Progressive Binding Solution and the mixture allowed to equilibrate for one hour in the dark, at room temperature.
(§8) The fluorescent polarisation generated in each well was determined using a […] Synergy 4 Hybrid plate reader. In brief, each reaction solution was excited at 485 nm with the emission measured at 528 nm in both the parallel and perpendicular pathway.
(§9) The polarisation value generated in each well was calculated by Gen5 software (Biotek) and the % inhibition of kinase activity compared to vehicle control was calculated via GraphPad Prism. IC50 values for each compound were calculated by non-linear regression analysis using Prism software.
(§10) All plates were internally controlled by two methods. Firstly, by calculating the signal:noise ratio; based on kinase polarisation without inhibitor and polarisation generated by complete reaction buffer in the absence of activated kinase. Secondly by determining IC50 values generated by known inhibitors of the AKT isoforms.

The next test has as its target T2, AKT3 (Homo sapiens, UniProt Q9Y243).
T2 construct: purchased SignalChem
As to the kind of experiment: AKT Kinase Assay (IMAP fluorescent polarisation) vs AKT3. As to the method:
as §1, §2, §3, §4, §5, §6, §7, §8, §9, §10

The target of another test is T3, AKT1 (Homo sapiens, UniProt P31749).
T3 construct: purchased SignalChem
T3 sequence (P31749 whole entry): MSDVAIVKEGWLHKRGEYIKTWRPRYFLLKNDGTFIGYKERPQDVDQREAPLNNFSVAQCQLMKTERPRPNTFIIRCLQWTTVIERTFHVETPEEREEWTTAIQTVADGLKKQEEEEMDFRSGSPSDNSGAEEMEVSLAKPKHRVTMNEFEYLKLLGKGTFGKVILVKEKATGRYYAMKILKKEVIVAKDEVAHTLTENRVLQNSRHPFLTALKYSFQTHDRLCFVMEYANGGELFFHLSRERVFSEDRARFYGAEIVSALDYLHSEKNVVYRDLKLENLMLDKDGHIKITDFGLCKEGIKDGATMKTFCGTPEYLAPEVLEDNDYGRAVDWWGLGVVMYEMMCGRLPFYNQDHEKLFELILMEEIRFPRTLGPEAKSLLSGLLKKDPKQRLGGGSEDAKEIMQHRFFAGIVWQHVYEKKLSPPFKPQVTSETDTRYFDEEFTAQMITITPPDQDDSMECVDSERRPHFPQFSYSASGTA
As to the kind of experiment: AKT Kinase Assay (IMAP fluorescent polarisation) vs AKT1. As to the method: as §1, §2, §3, §4, §5, §6, §7, §8, §9, §10

T1 sequence (P31751 whole entry): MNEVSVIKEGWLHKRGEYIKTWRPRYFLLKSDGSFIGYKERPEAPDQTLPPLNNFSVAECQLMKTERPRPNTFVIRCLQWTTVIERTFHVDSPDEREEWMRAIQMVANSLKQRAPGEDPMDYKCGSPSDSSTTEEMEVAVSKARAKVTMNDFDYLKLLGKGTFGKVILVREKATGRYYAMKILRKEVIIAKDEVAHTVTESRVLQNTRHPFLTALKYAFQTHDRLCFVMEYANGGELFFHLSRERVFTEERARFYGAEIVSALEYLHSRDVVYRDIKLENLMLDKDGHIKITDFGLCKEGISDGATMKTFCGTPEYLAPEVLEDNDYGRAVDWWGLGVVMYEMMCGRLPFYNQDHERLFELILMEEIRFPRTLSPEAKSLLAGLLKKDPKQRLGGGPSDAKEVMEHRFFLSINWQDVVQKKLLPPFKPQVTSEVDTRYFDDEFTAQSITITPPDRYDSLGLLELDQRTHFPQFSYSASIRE
T2 sequence (Q9Y243 whole entry): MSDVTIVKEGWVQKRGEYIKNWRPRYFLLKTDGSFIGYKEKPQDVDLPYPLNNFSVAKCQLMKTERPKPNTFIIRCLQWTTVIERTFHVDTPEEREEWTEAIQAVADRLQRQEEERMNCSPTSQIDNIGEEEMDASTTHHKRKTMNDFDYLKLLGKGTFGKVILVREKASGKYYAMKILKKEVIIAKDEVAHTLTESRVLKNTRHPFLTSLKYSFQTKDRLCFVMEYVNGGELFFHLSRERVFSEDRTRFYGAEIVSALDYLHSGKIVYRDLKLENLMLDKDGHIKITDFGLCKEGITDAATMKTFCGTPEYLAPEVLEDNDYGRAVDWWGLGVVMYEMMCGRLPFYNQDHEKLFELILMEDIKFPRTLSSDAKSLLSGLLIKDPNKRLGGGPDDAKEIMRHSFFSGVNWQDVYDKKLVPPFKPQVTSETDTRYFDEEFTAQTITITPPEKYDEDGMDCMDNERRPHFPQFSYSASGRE

Turning to `CCOC(=O)CN1C(=O)COc2nc(-c3ccc(C4(N)CCC4)cc3)c(-c3ccccc3)cc21` [Example 49, ethyl 2-(6-(4-(1-aminocyclobutyl)phenyl)-2-oxo-7-phenyl-2,3-dihydro-1H-pyrido[2,3-b][1,4]oxazin-1-yl)acetate], the IC50 on AKT2, at AKT3 and on AKT1 was 100 to 1000 nM throughout.

As for `Nc1nnc2n1-c1cc(-c3ccccc3)c(-c3ccc(C4(N)CCC4)cc3)nc1OC2` [Example 50, 7-(4-(1-aminocyclobutyl)phenyl)-8-phenyl-4H-pyrido[2,3-b][1,2,4]triazolo[4,3-d][1,4]oxazin-1-amine], the IC50 is 100 to 1000 nM on AKT2, 1000 to 10000 nM on AKT3 and not above 100 nM at AKT1.

For the compound `COCCN1C(=O)COc2nc(-c3ccc(C4(N)CCC4)cc3)c(-c3ccccc3)cc21` [Example 51, 6-(4-(1-aminocyclobutyl)phenyl)-1-(2-methoxyethyl)-7-phenyl-1H-pyrido[2,3-b][1,4]oxazin-2(3H)-one], the IC50 on AKT2 fell in the range of 100 to 1000 nM; at AKT3 it was 1000 to 10000 nM; at AKT1, 100 to 1000 nM.

For `CCN1C(=O)COc2nc(-c3ccc(C4(N)CCC4)cc3)c(-c3ccccc3)cc21` [Example 52, 6-(4-(1-aminocyclobutyl)phenyl)-1-ethyl-7-phenyl-1H-pyrido[2,3-b][1,4]oxazin-2(3H)-one], the IC50 was not above 100 nM on AKT2, 1000 to 10000 nM at AKT3 and 100 to 1000 nM at AKT1.

`NC1(c2ccc(-c3nc4c(cc3-c3ccccc3)N(Cc3cnc[nH]3)C(=O)CO4)cc2)CCC1` [Example 53, 1-((1H-imidazol-5-yl)methyl)-6-(4-(1-aminocyclobutyl)phenyl)-7-phenyl-1H-pyrido[2,3-b][1,4]oxazin-2(3H)-one]: the IC50 at AKT2, at AKT3 and on AKT1 was 1000 to 10000 nM each time.

In the case of `CC(C#N)N1C(=O)COc2nc(-c3ccc(C4(N)CCC4)cc3)c(-c3ccccc3)cc21` (stereo not drawn) [Example 54, 2-(6-(4-(1-aminocyclobutyl)phenyl)-2-oxo-7-phenyl-2,3-dihydro-1H-pyrido[2,3-b][1,4]oxazin-1-yl)propanenitrile], the IC50 on AKT2 fell in the range of 100 to 1000 nM; at AKT3, 1000 to 10000 nM; at AKT1, 100 to 1000 nM.

With `NC1(c2ccc(-c3nc4c(cc3-c3ccccc3)N(CC3CC3)C(=O)CO4)cc2)CCC1` [Example 55, 6-(4-(1-aminocyclobutyl)phenyl)-1-(cyclopropylmethyl)-7-phenyl-1H-pyrido[2,3-b][1,4]oxazin-2(3H)-one], the IC50 was not above 100 nM at AKT2, 100 to 1000 nM on AKT3 and 100 to 1000 nM at AKT1.

Consider `NC1(c2ccc(-c3nc4c(cc3-c3ccccc3)N(Cc3ccccn3)C(=O)CO4)cc2)CCC1` [Example 56, 6-(4-(1-aminocyclobutyl)phenyl)-7-phenyl-1-(pyridin-2-ylmethyl)-1H-pyrido[2,3-b][1,4]oxazin-2(3H)-one], for which the IC50 on AKT2, at AKT3 and at AKT1 was 100 to 1000 nM throughout.

Turning to `CC(C)N1C(=O)COc2nc(-c3ccc(C4(N)CCC4)cc3)c(-c3ccccc3)cc21` [Example 57, 6-(4-(1-aminocyclobutyl)phenyl)-1-isopropyl-7-phenyl-1H-pyrido[2,3-b][1,4]oxazin-2(3H)-one], the IC50 lay within 100 to 1000 nM at AKT2, 1000 to 10000 nM on AKT3 and 1000 to 10000 nM on AKT1.

Consider `NC1(c2ccc(-c3nc4c(cc3-c3ccccc3)N(C3CCCC3)C(=O)CO4)cc2)CCC1` [Example 58, 6-(4-(1-aminocyclobutyl)phenyl)-1-cyclopentyl-7-phenyl-1H-pyrido[2,3-b][1,4]oxazin-2(3H)-one], for which the results for the IC50 at AKT2, at AKT3 and on AKT1 were 100 to 1000 nM, 1000 to 10000 nM and 1000 to 10000 nM, respectively.

Consider `NC1(c2ccc(-c3nc4c(cc3-c3ccccc3)N(Cc3cscn3)C(=O)CO4)cc2)CCC1` [Example 59, 6-(4-(1-aminocyclobutyl)phenyl)-7-phenyl-1-(thiazol-4-ylmethyl)-1H-pyrido[2,3-b][1,4]oxazin-2(3H)-one], for which the IC50 on AKT2 fell in the range of 100 to 1000 nM; at AKT3, 1000 to 10000 nM; at AKT1 it was 1000 to 10000 nM.

As to `NC1(c2ccc(-c3nc4c(cc3-c3ccccc3)N(CC(F)(F)F)C(=O)CO4)cc2)CCC1` [Example 60, 6-(4-(1-aminocyclobutyl)phenyl)-7-phenyl-1-(2,2,2-trifluoroethyl)-1H-pyrido[2,3-b][1,4]oxazin-2(3H)-one], the IC50 on AKT2 was not above 100 nM; at AKT3 it was 1000 to 10000 nM; at AKT1 it was 100 to 1000 nM.

For the compound `NC1(c2ccc(-c3nc4c(cc3-c3ccccc3)N(C3CCC3)C(=O)CO4)cc2)CCC1` [Example 61, 6-(4-(1-aminocyclobutyl)phenyl)-1-cyclobutyl-7-phenyl-1H-pyrido[2,3-b][1,4]oxazin-2(3H)-one], the figures for the IC50 at AKT2, at AKT3 and at AKT1 were 100 to 1000 nM, 1000 to 10000 nM and 1000 to 10000 nM, respectively.

As for `N#CCCN1C(=O)COc2nc(-c3ccc(C4(N)CCC4)cc3)c(-c3ccccc3)cc21` [Example 62, 3-(6-(4-(1-aminocyclobutyl)phenyl)-2-oxo-7-phenyl-2,3-dihydro-1H-Pyrido[2,3-b][1,4]oxazin-1-yl)propanenitrile], the IC50 was in the range of 100 to 1000 nM at AKT2, 1000 to 10000 nM on AKT3 and 1000 to 10000 nM on AKT1.

With `Cc1nnc2n1-c1cc(-c3ccccc3)c(-c3ccc(C4(N)CCC4)cc3)nc1OC2` [Example 63, 1-(4-(1-methyl-8-phenyl-4H-pyrido[2,3-b][1,2,4]triazolo[4,3-d][1,4]oxazin-7-yl)phenyl)cyclobutanamine], the IC50 at AKT2 was 1000 to 10000 nM; at AKT3, more than 10000 nM; at AKT1, 100 to 1000 nM.

Consider `N#CCCCN1C(=O)COc2nc(-c3ccc(C4(N)CCC4)cc3)c(-c3ccccc3)cc21` [Example 64, 4-(6-(4-(1-aminocyclobutyl)phenyl)-2-oxo-7-phenyl-2,3-dihydro-1H-pyrido[2,3-b][1,4]oxazin-1-yl)butanenitrile], for which the IC50 on AKT2 fell in the range of 100 to 1000 nM; at AKT3, 1000 to 10000 nM; at AKT1, 100 to 1000 nM.

With `NC1(c2ccc(-c3nc4c(cc3-c3ccccc3)N(C3CCOCC3)C(=O)CO4)cc2)CCC1` [Example 65, 6-(4-(1-aminocyclobutyl)phenyl)-7-phenyl-1-(tetrahydro-2H-pyran-4-yl)-1H-pyrido[2,3-b][1,4]oxazin-2(3H)-one], the IC50 on AKT2 was 1000 to 10000 nM; at AKT3, more than 10000 nM; on AKT1, 1000 to 10000 nM.

As to `N#CCCCCN1C(=O)COc2nc(-c3ccc(C4(N)CCC4)cc3)c(-c3ccccc3)cc21` [Example 66, 5-(6-(4-(1-aminocyclobutyl)phenyl)-2-oxo-7-phenyl-2,3-dihydro-1H-pyrido[2,3-b][1,4]oxazin-1-yl)pentanenitrile], the IC50 at AKT2 lay within 100 to 1000 nM; at AKT3 it was 1000 to 10000 nM; at AKT1 it was 100 to 1000 nM.

As for `C=CCN1C(=O)COc2nc(-c3ccc(C4(N)CCC4)cc3)c(-c3ccccc3)cc21` [Example 67, 1-allyl-6-(4-(1-aminocyclobutyl)phenyl)-7-phenyl-1H-pyrido[2,3-b][1,4]oxazin-2(3H)-one], the IC50 on AKT2 is not above 100 nM; on AKT3, 1000 to 10000 nM; at AKT1, 100 to 1000 nM.

Take `NC1(c2ccc(-c3nc4c(cc3-c3ccccc3)N(CCO)C(=O)CO4)cc2)CCC1` [Example 68, 6-(4-(1-aminocyclobutyl)phenyl)-1-(2-hydroxyethyl)-7-phenyl-1H-pyrido[2,3-b][1,4]oxazin-2(3H)-one]: the IC50 was 100 to 1000 nM at AKT2, more than 10000 nM on AKT3 and 100 to 1000 nM at AKT1.

Consider `CCCc1nnc2n1-c1cc(-c3ccccc3)c(-c3ccc(C4(N)CCC4)cc3)nc1OC2` [Example 69, 1-(4-(8-phenyl-1-propyl-4H-pyrido[2,3-b][1,2,4]triazolo[4,3-d][1,4]oxazin-7-yl)phenyl)cyclobutanamine], for which the IC50 is 100 to 1000 nM on AKT2, 1000 to 10000 nM on AKT3 and not above 100 nM at AKT1.

As a reminder, the IC50 is the point on the concentration scale where inhibition reaches its midpoint.
